From patent publication US20240279635A1, “BIOFILM ACTIVITY ADJUSTING METHOD” (NATIONAL INSTITUTE FOR MATERIALS SCIENCE, priority 2021, published 2024)

Tested on: Klebsiella pneumoniae
Assay: Electric current generation by Klebsiella pneumoniae with electron mediators in a three-electrode electrochemical cell (time-current curve, FIG. 4)
Assay type: cell-based
Conditions: 100 μM electron mediator, 10 mM glucose, working electrode +0.2 V (vs. Ag/AgCl), 37° C., anaerobic condition, 15 hours, carbon electrodes
Protocol: The experiment was performed using a three-electrode electrochemical cell having carbon electrodes as the working electrode and counter electrode, and a silver/silver chloride electrode as the reference electrode.
First, as an electron source, a liquid culture medium (defined medium) containing 10 mM of glucose and 100 μM of electron mediator (see below) was added to the cell described above, to which Klebsiella pneumoniae (optical density (OD): 0.1) was inoculated, then an electric potential of the working electrode was set to +0.2 V (vs. Ag/AgCl) at 37° C., and the culture medium was incubated under anaerobic condition for 15 hours.
• HNQ: 2-hydroxy-1,4-naphthoquinone • 1-Phenazine: 1-hydroxyphenazine • AQDS: anthraquinone-1,5-disulfonate • AQS: anthraquinone-1-sulfonate • FMN: flavin mono nucleotide • RF: ribobflavin • W/O mediator: no electron mediator
FIG. 4 is a time-current curve.

SMILES: O=C1C=C(O)C(=O)c2ccccc21 [HNQ, 2-hydroxy-1,4-naphthoquinone]
- generated electric current (time-current curve): a large electric current could be generated
